Patent US10023592B2, “Bromodomain inhibitors” (Celgene Quanticel Research, Inc., priority 2013, dated 2018)

Experiments:
[1] = system: Raji, human Burkitts lymphoma cells; assay: Cell-MTS proliferation assay, Raji; type: cell-based; details: Homo sapiens, 168 hr
Method in brief: (§1)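 Seed: Raji 15,000, HL-60 5,000, NCI-H460 3,000 cells/96-well. +24 hr: 11-pt compound dilution, 100 μM–2.0 nM final. 7 d culture, MTS reagent, read OD490; IC50 vs DMSO, background subtracted.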

[2] = system: NCI-H460, human non-small cell lung cancer cells; assay: Cell-MTS proliferation assay, NCI-H460; type: cell-based; details: Homo sapiens, 168 hr
Method in brief: as §1

BRD4(BD1) = BRD4(BD1) (Homo sapiens (Human), UniProt O60885); assay: In vitro enzyme inhibition assay (BRD4 AlphaScreen); type: binding
Method in brief: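 His-tagged BRD4 tested by AlphaScreen for binding of biotinylated H4K5/8/12/16-tetraacetyl peptide. After 20 min at room temperature, streptavidin donor and nickel chelate acceptor beads added (5 μg/mL final each). IC50 determined.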

[3] = system: HL-60, human proleukemia cells; assay: Cell-MTS proliferation assay, HL-60; type: cell-based; details: Homo sapiens, 168 hr
Method in brief: as §1

[4] = Cell-MTS proliferation, Raji cells
[5] = Cell-MTS proliferation, NCI-H460 cells
[6] = in vitro enzyme inhibition assay
[7] = Cell-MTS proliferation, HL-60 cells
[8] = Raji, Cell-MTS, class symbols A/B/C
[9] = NCI-H460, Cell-MTS, class symbols A/B/C
[10] = HL-60, Cell-MTS, class symbols A/B/C
[11] = NCI-H460, Cell-MTS proliferation

SMILES | IC50 [1, 4] [nM] | IC50 [2, 5] [nM] | IC50 (BRD4(BD1); [6]) [nM] | IC50 [3, 7] [nM] | IC50 [1, 8] [nM] | IC50 [2, 9] [nM] | IC50 (BRD4(BD1); class symbols A/B/C) [nM] | IC50 [3, 10] [nM] | IC50 ([1]; Raji, Cell-MTS proliferation) [nM] | IC50 [2, 11] [nM] | IC50 ([3]; HL-60, Cell-MTS proliferation) [nM]
Cc1cc(-c2cc(S(C)(=O)=O)ccc2OCC2CC2)cn(C)c1=O [Example 476, 5-[2-(cyclopropylmethoxy)-5-methylsulfonylphenyl]-1,3-dimethylpyridin-2-one] | 500 to 5000 | > 5000 | < 500 | < 500 | – | – | – | – | – | – | –
Cn1cc(-c2cc(S(C)(=O)=O)ccc2Oc2ccc(F)cc2F)c2ccccc2c1=O [Example 92, 4-[2-(2,4-difluorophenoxy)-5-methylsulfonylphenyl]-2-methylisoquinolin-1-one] | – | – | – | – | < 500 | > 5000 | < 500 | < 500 | – | – | –
Cn1cc(-c2cc(S(C)(=O)=O)ccc2OC2CCCOC2)c2ccccc2c1=O (stereo not shown) [Example 179, 2-methyl-4-[5-methylsulfonyl-2-(oxan-3-yloxy)phenyl]isoquinolin-1-one] | – | – | < 500 | – | – | – | – | – | < 500 | > 5000 | < 500
Cn1cc(-c2cc(NS(C)(=O)=O)ccc2Oc2ccc(F)cc2F)cc(C2CC2)c1=O [Example 279, N-[3-(5-cyclopropyl-1-methyl-6-oxopyridin-3-yl)-4-(2,4-difluorophenoxy)phenyl]methanesulfonamide] | – | – | < 500 | – | – | – | – | – | < 500 | > 5000 | < 500
COc1ccc(-c2cn(C)c(=O)c3cncn23)cc1NS(C)(=O)=O [Example 132, N-[2-methoxy-5-(7-methyl-8-oxoimidazo[1,5-a]pyrazin-5-yl)phenyl]methanesulfonamide] | – | – | – | – | > 5000 | 500 to 5000 | 500 to 5000 | 500 to 5000 | – | – | –
COc1ccc(-c2cc(N(C)C)c(=O)n(C)c2)cc1NS(C)(=O)=O [Example 113, N-[5-[5-(dimethylamino)-1-methyl-6-oxopyridin-3-yl]-2-methoxyphenyl]methanesulfonamide] | – | – | – | – | 500 to 5000 | 500 to 5000 | < 500 | < 500 | – | – | –
Cn1cc(-c2cc(OCc3ccccc3OC(F)F)cc(S(C)(=O)=O)c2)c2ccoc2c1=O [Example 348, 4-[3-[[2-(difluoromethoxy)phenyl]methoxy]-5-methylsulfonylphenyl]-6-methylfuro[2,3-c]pyridin-7-one] | – | – | < 500 | – | – | – | – | – | < 500 | 500 to 5000 | < 500
CN(C)c1cc(-c2cc(NS(C)(=O)=O)ccc2Oc2ccc(F)cc2F)cn(C)c1=O [Example 463, N-[4-(2,4-difluorophenoxy)-3-[5-(dimethylamino)-1-methyl-6-oxopyridin-3-yl]phenyl]methanesulfonamide] | < 500 | > 5000 | < 500 | < 500 | – | – | – | – | – | – | –
CCCCc1cnc(NS(=O)(=O)CC)nc1-c1cc(C)c(=O)n(C)c1 [Example 310, N-[5-butyl-4-(1,5-dimethyl-6-oxopyridin-3-yl)pyrimidin-2-yl] ethanesulfonamide] | – | – | < 500 | – | – | – | – | – | < 500 | > 5000 | < 500
CCS(=O)(=O)Nc1ccc(Oc2ccc(F)cc2F)c(-c2cc(N(C)C)c(=O)n(C)c2)c1 [Example 464, N-[4-(2,4-difluorophenoxy)-3-[5-(dimethylamino)-1-methyl-6-oxopyridin-3-yl]phenyl]ethanesulfonamide] | < 500 | > 5000 | < 500 | < 500 | – | – | – | – | – | – | –
CCS(=O)(=O)Nc1ccc(Oc2ccc(F)cc2F)c(-c2cn(C)c(=O)c3cnccc23)c1 [Example 57, N-[4-(2,4-difluorophenoxy)-3-(2-methyl-1-oxo-2,7-naphthyridin-4-yl)phenyl]ethanesulfonamide] | – | – | – | – | < 500 | > 5000 | < 500 | < 500 | – | – | –
Cn1cc(-c2nc(S(C)(=O)=O)ccc2OCC2CC2)c2ccc(F)cc2c1=O [Example 201, 4-[3-(cyclopropylmethoxy)-6-methylsulfonylpyridin-2-yl]-7-fluoro-2-methylisoquinolin-1-one] | – | – | < 500 | – | – | – | – | – | < 500 | > 5000 | < 500
CCOc1ccc(S(N)(=O)=O)cc1-c1ccc(=O)n(C)c1 [Example 117, 4-ethoxy-3-(1-methyl-6-oxopyridin-3-yl)benzenesulfonamide] | – | – | – | – | 500 to 5000 | > 5000 | < 500 | 500 to 5000 | – | – | –
Cn1cc(-c2cc(CS(C)(=O)=O)ccc2Oc2ccc(F)cc2F)cc(F)c1=O [Example 437, 5-[2-(2,4-difluorophenoxy)-5-(methylsulfonylmethyl)phenyl]-3-fluoro-1-methylpyridin-2-one] | < 500 | > 5000 | < 500 | < 500 | – | – | – | – | – | – | –
Cc1cc(-c2cc(O[C@H](C)c3ccccc3)cc(S(C)(=O)=O)c2)cn(C)c1=O [Example 341, 1,3-dimethyl-5-[3-methylsulfonyl-5-[(1R)-1-phenylethoxy]phenyl]pyridin-2-one] | – | – | < 500 | – | – | – | – | – | < 500 | > 5000 | < 500
C#Cc1cc(-c2cc(NS(=O)(=O)CC)ccc2Oc2ccc(F)cc2F)cn(C)c1=O [Example 283, N-[4-(2,4-difluorophenoxy)-3-(5-ethynyl-1-methyl-6-oxopyridin-3-yl)phenyl]ethanesulfonamide] | – | – | < 500 | – | – | – | – | – | 500 to 5000 | > 5000 | < 500
C#Cc1cc(-c2cc(S(=O)(=O)CC)ccc2OCC2CC2)cn(C)c1=O [Example 284, 5-[2-(cyclopropylmethoxy)-5-ethylsulfonylphenyl]-3-ethynyl-1-methylpyridin-2-one] | – | – | < 500 | – | – | – | – | – | 500 to 5000 | > 5000 | 500 to 5000
Cn1cc(-c2cc(S(C)(=O)=O)ccc2OCC2CC2)n2cnnc2c1=O [Example 235, 5-[2-(cyclopropylmethoxy)-5-methylsulfonylphenyl]-7-methyl-[1,2,4]triazolo[4,3-a]pyrazin-8-one] | – | – | > 5000 | – | – | – | – | – | > 5000 | > 5000 | > 5000
Cn1cc(-c2cc(CS(C)(=O)=O)ccc2OCC(F)(F)F)c2ccoc2c1=O [Example 258, 6-methyl-4-[5-(methylsulfonylmethyl)-2-(2,2,2-trifluoroethoxy)phenyl]furo[2,3-c]pyridin-7-one] | – | – | < 500 | – | – | – | – | – | 500 to 5000 | 500 to 5000 | < 500
CCS(=O)(=O)Cc1ccc(OCC(F)(F)F)c(-c2cn(C)c(=O)c3cncn23)c1 [Example 371, 5-[5-(ethylsulfonylmethyl)-2-(2,2,2-trifluoroethoxy)phenyl]-7-methylimidazo[1,5-a]pyrazin-8-one] | – | – | 500 to 5000 | – | – | – | – | – | 500 to 5000 | > 5000 | 500 to 5000
Cc1cc(-c2cc(NS(C)(=O)=O)ccc2O[C@H]2CC[C@@H](O)CC2)cn(C)c1=O [Example 434, N-[3-(1,5-dimethyl-6-oxopyridin-3-yl)-4-(cis-4-hydroxycyclohexyl)oxyphenyl] methanesulfonamide] | 500 to 5000 | > 5000 | < 500 | 500 to 5000 | – | – | – | – | – | – | –
CCS(=O)(=O)Nc1ccc(Cl)c(-c2cn(C)c(=O)c3ccc(F)cc23)c1 [Example 50, N-[4-chloro-3-(6-fluoro-2-methyl-1-oxoisoquinolin-4-yl)phenyl] ethanesulfonamide] | – | – | – | – | 500 to 5000 | 500 to 5000 | < 500 | < 500 | – | – | –
Cc1cc(-c2cc(N(C)S(C)(=O)=O)ccc2Oc2ccc(F)cc2F)cn(C)c1=O [Example 229, N-[4-(2,4-difluorophenoxy)-3-(1,5-dimethyl-6-oxopyridin-3-yl)phenyl]-N-methylmethanesulfonamide] | – | – | < 500 | – | – | – | – | – | < 500 | > 5000 | < 500
Cc1cc(-c2nc(S(C)(=O)=O)ncc2Oc2ccc(F)cc2F)cn(C)c1=O [Example 149, 5-[5-(2,4-difluorophenoxy)-2-methylsulfonylpyrimidin-4-yl]-1,3-dimethylpyridin-2-one] | – | – | 500 to 5000 | – | – | – | – | – | > 5000 | > 5000 | > 5000
CCS(=O)(=O)Nc1ccc(Oc2ccc(F)cc2F)c(-c2cn(C)c(=O)c3nc(C)oc23)c1 [Example 241, N-[4-(2,4-difluorophenoxy)-3-(2,5-dimethyl-4-oxo-[1,3]oxazolo[4,5-c]pyridin-7-yl)phenyl]ethanesulfonamide] | – | – | < 500 | – | – | – | – | – | < 500 | > 5000 | < 500
CCS(=O)(=O)Cc1ccc(Oc2ccc(F)cc2F)c(-c2cn(C)c(=O)c3cncn23)c1 [Example 369, 5-[2-(2,4-difluorophenoxy)-5-(ethylsulfonylmethyl)phenyl]-7-methylimidazo[1,5-a]pyrazin-8-one] | – | – | < 500 | – | – | – | – | – | 500 to 5000 | > 5000 | < 500
Cn1cc(-c2nc(NS(C)(=O)=O)ncc2OCC2CC2)c2cc(F)ccc2c1=O [Example 159, N-[5-(cyclopropylmethoxy)-4-(6-fluoro-2-methyl-1-oxoisoquinolin-4-yl)pyrimidin-2-yl]methanesulfonamide] | – | – | < 500 | – | – | – | – | – | < 500 | > 5000 | < 500
Cn1cc(-c2cc(OCc3ccccc3)cc(S(C)(=O)=O)c2)c2ccoc2c1=O [Example 349, 6-methyl-4-(3-methylsulfonyl-5-phenylmethoxyphenyl)furo[2,3-c]pyridin-7-one] | – | – | < 500 | – | – | – | – | – | < 500 | > 5000 | < 500
